26 molecules from patent US20210130308A1, “MODULATORS OF EUKARYOTIC INITIATION FACTOR 2” (Denali Therapeutics Inc., priority 2018, published 2021) can be followed below.

Read-outs that look alike come from different tables or passages of the source.

The subject of the test is ATF4 translation (ISR pathway activation). In words: ATF4 Nano Luciferase reporter integrated stress response (ISR) assay in H4 ATF4-NLuc (clone 17) cells. Format: cell-based, human. The conditions noted are these: Homo sapiens, 0.5 h. The source says:
Cellular stress leads to activation of the integrated stress response pathway through one of four eukaryotic initiation factor 2α kinases and halts global translation, while allowing for the translation of select transcripts like ATF4 (activating transcription factor 4) that are important for the response to cellular stress. During normal conditions, small open reading frames (ORFs) in the 5′ UTR of ATF4 occupy the ribosome and prevent translation of the coding sequence of ATF4. During stress conditions however, the ribosome scans past these upstream ORFs and preferentially begins translation at the coding sequence of ATF4. In this way, the translation, and thus protein level of ATF4 is a readout of ISR pathway activation. Thus, a fusion of the uORFs and the beginning of the coding sequence of ATF to a common cellular reporter like nano-luciferase allows for a sensitive and high-throughput readout of ISR pathway activity.
Compounds as provided herein were tested in the following assay. The ATF4 Nano Luciferase reporter was constructed by fusing the human full length 5′ untranslated region (5′-UTR) and a small portion of the coding sequence of the ATF4 gene upstream of the Nano Luciferase (NLuc) coding sequence lacking it's start codon. Specifically, nucleotides +1 through +364 (relative to the transcriptional start site) of ATF4 transcript variant 2 (NCBI NM_182810.2) flanked 5′ by EcoRI and 3′ by BamHI restriction enzyme sites were synthesized and cloned into the EcoRI/BamHI cloning sites of pLVX-EF1a-IRES-Puro lentivirus vector (Clontech). […]. H4 cells were selected with […] Puromycin, and clonal cell lines generated by limiting dilution. We utilized this cell line to generate an integrated stress response (ISR) assay to evaluate the activity of ISR pathway inhibitors via luminescence readout. The H4 ATF4-NLuc (clone 17) cell line is plated at a density of […] in 96-well or 384-well respectively in DMEM+10% fetal bovine serum. 24-hours later test compounds diluted in dimethyl sulfoxide (DMSO) are added for 30 minutes at 37 degree Celsius, followed by ISR pathway activation with 50 um sodium arsenite aqueous solution for 6 additional hours. Nano Glo luciferase reagent (N1150, Promega) is added according to manufacturer instructions and the luminescence signal (corresponding to the level of ATF4 translation and thus ISR pathway activation) is read with a standard plate reader with luminescence detection capabilities.
In the table below, activity of the tested compounds is provided in Table 3 as follows: +++=IC50<1 μM; ++=IC50 1-10 μM; +=IC50>10 μM.
For orientation: In a reporter assay the amount or activity of a reporter protein is the signal.

The mark [1] stands for this setting: H4 ATF4-NLuc (clone 17) cells, compounds 30 minutes at 37 degree Celsius, then 50 um sodium arsenite for 6 additional hours, luminescence readout, read-out: IC50.

As for `O=C(COC1CC(C(F)(F)F)C1)NC12CC(NC(=O)c3ccc4cc(C(F)(F)F)ccc4n3)(C1)C2` (centres unmarked) [Example 67, 6-(trifluoromethyl)-N-(3-(2-(3-(trifluoromethyl)cyclobutoxy)acetamido)bicyclo[1.1.1]pentan-1-yl)quinoline-2-carboxamide], the IC50 under setting [1] is < 1000 nM.

`O=C(COC1CCN(CC(F)(F)F)C1)NC12CC(NC(=O)c3ccc4cc(C(F)(F)F)ccc4n3)(C1)C2` (centres unmarked) [Example 73]: the 50% inhibitory concentration (IC50) is < 1000 nM.

On to `O=C(COC1CC(OC(F)(F)F)C1)NC12CC(NC(=O)[C@@H]3CCc4cc(C(F)(F)F)ccc4O3)(C1)C2` (single isomer, unassigned) [Example 72 (second eluting isomer), N-(3-(2-(3-cis-(trifluoromethoxy)cyclobutoxy)acetamido)bicyclo[1.1.1]pentan-1-yl)-6-(trifluoromethyl)chroman-2-carboxamide], for which, under setting [1], the IC50 was < 1000 nM.

Take `O=C(COC1CC(OC(F)(F)F)C1)NC12CC(NC(=O)c3ccc4cc(C(F)(F)F)ccc4n3)(C1)C2` (stereo not drawn) [Example 51, N-[1-[[2-[3-cis-(trifluoromethoxy)cyclobutoxy]acetyl]amino]-3-bicyclo[1.1.1]pentanyl]-6-(trifluoromethyl)quinoline-2-carboxamide]: under setting [1], the IC50 was < 1000 nM.

For `O=C(COc1ccc(Cl)c(F)c1)NC1CC2(CCN(C(=O)COC3CC(C(F)(F)F)C3)CC2)C1` (centres unmarked) [Example 16, 2-(4-chloro-3-fluoro-phenoxy)-N-[7-[2-[3-(trifluoromethyl)cyclobutoxy]acetyl]-7-azaspiro[3.5]nonan-2-yl]acetamide], the IC50 under setting [1] is < 1000 nM.

Take `O=C(COc1ccc(Cl)c(F)c1)NC1CC2(C1)CC(c1nnc(C3CC(OC(F)(F)F)C3)o1)C2` (stereo not drawn) [Example 33, 2-(4-chloro-3-fluoro-phenoxy)-N46-[5-[3-cis-(trifluoromethoxy)cyclobutyl]-1,3,4-oxadiazol-2-yl]spiro[3.3]heptan-2-yl)acetamide]: the IC50 under setting [1] was < 1000 nM.

As to `O=C(COc1ccc(Cl)c(F)c1)NC1CCN(c2nnc(C3CC(OC(F)(F)F)C3)o2)CC1` (stereo not drawn) [Example 26, 2-(4-chloro-3-fluoro-phenoxy)-N-[1-[5-[3-cis-(trifluoromethoxy)cyclobutyl]-1,3,4-oxadiazol-2-yl]-4-piperidyl]acetamide], under setting [1], the IC50 is < 1000 nM.

Turning to `O=C(COc1ccc(Cl)c(F)c1)NC1CCN(CCOC2CC(OC(F)(F)F)C2)CC1(F)F` (stereo not drawn) [Example 47, 2-(4-chloro-3-fluoro-phenoxy)-N-[3,3-difluoro-1-[2-[3-cis-(trifluoromethoxy)cyclobutoxy]ethyl]-4-piperidyl]acetamide], the IC50 under setting [1] was < 1000 nM.

Take `O=C(COC1CC(OC(F)(F)F)C1)N[C@H]1CC[C@H](c2nnc(C3CC(OC(F)(F)F)C3)o2)CC1` (stereo partly drawn) [Example 30, 2-[3-cis-(trifluoromethoxy)cyclobutoxy]-N-[4-[5-[3-cis-(trifluoromethoxy)cyclobutyl]-1,3,4-oxadiazol-2-yl]cyclohexyl]acetamide]: the half-inhibitory concentration (IC50) under setting [1] was < 1000 nM.

`O=C(COc1cccc(Cl)c1F)NC12CC(NC(=O)COC3CCC3)(C1)C2` [Example 13, 2-(3-chloro-2-fluoro-phenoxy)-N-[3-[[2-(cyclobutoxy)acetyl]amino]-1-bicyclo[1.1.1]pentanyl]acetamide] gave an IC50 of 1000 to 10000 nM.

For the molecule `O=C(COc1ccc(Cl)cc1)N[C@H]1C[C@@H]2CN(C(=O)COC3CC(OC(F)(F)F)C3)C[C@@H]2C1` (some centres unmarked) [Example 59], the IC50 is < 1000 nM.

As to `O=C(COc1ccc(Cl)c(F)c1)NC12CC(NC(=O)COC3CC(F)C3)(C1)C2` (centres unmarked) [Example 9], the IC50 under setting [1] is < 1000 nM.

For `CC(C)OC1CC(OCC(=O)NC23CC(NC(=O)c4ccc5cc(C(F)(F)F)ccc5n4)(C2)C3)C1` (stereo not drawn) [Example 70, N-(3-(2-(3-cis-isopropoxycyclobutoxy)acetamido)bicyclo[1.1.1]pentan-1-yl)-6-(trifluoromethyl)quinoline-2-carboxamide], under setting [1], the IC50 is < 1000 nM.

With `O=C(COc1ccc(Cl)c(F)c1)N[C@H]1C[C@@H]2CN(C(=O)COC3CCC3)C[C@@H]2C1` [Example 40, 2-(4-chloro-3-fluorophenoxy)-N-((3aR,5s,6aS)-2-(2-cyclobutoxyacetyl)octahydrocyclopenta[c]pyrrol-5-yl)acetamide], the IC50 under setting [1] was < 1000 nM.

On to `O=C(COc1ccc(Cl)c(F)c1)N[C@H]1CC[C@H](c2nnc(C3CC(OC(F)(F)F)C3)o2)CC1` (stereo partly drawn) [Example 28, 2-(4-chloro-3-fluoro-phenoxy)-N-[4-[5-[3-cis-(trifluoromethoxy)cyclobutyl]-1,3,4-oxadiazol-2-yl]cyclohexyl]acetamide], for which, under setting [1], the IC50 is < 1000 nM.

Regarding `O=C(COc1ccc(Cl)c(F)c1)NC1CCN(C(=O)COC2CC(OC(F)(F)F)C2)CC1` (stereo not drawn) [Example 62, 2-(4-chloro-3-fluoro-phenoxy)-N-[1-[2-[3-cis-(trifluoromethoxy)cyclobutoxy]acetyl]-4-piperidyl]acetamide], the 50% inhibitory concentration (IC50) under setting [1] was < 1000 nM.

On to `CCOC1CC(OCC(=O)NC23CC(NC(=O)c4ccc5cc(C(F)(F)F)ccc5n4)(C2)C3)C1` (stereo not drawn) [Example 71, N-(3-(2-(3-cis-ethoxycyclobutoxy)acetamido)bicyclo[1.1.1]pentan-1-yl)-6-(trifluoromethyl)quinoline-2-carboxamide], for which the IC50 under setting [1] is < 1000 nM.

For the molecule `O=C(COc1ccc(Cl)c(F)c1)N[C@@H]1C[C@@H]2CN(C(=O)COC3CCC3)C[C@@H]2C1` [Example 41, 2-(4-chloro-3-fluorophenoxy)-N-((3aR,5r,6aS)-2-(2-cyclobutoxyacetyl)octahydrocyclopenta[c]pyrrol-5-yl)acetamide], under setting [1], the IC50 was < 1000 nM.

Regarding `O=C(COC1CC(OC(F)(F)F)C1)NC12CC(NC(=O)COC3CC(OC(F)(F)F)C3)(C1)C2` (stereo not drawn) [Example 39, 2-[3-cis-(trifluoromethoxy)cyclobutoxy]-N-[3-[[2-[3-cis-(trifluoromethoxy)cyclobutoxy]acetyl]amino]-1-bicyclo[1.1.1]pentanyl]acetamide], under setting [1], the IC50 is < 1000 nM.

With `O=C(COC1CC(OC(F)(F)F)C1)NC12CC(NC(=O)c3ccc4cc(F)ccc4n3)(C1)C2` (stereo not drawn) [Example 66, 6-fluoro-N-[1-[[2-[3-cis-(trifluoromethoxy)cyclobutoxy]acetyl]amino]-3-bicyclo[1.1.1]pentanyl]quinoline-2-carboxamide], the IC50 under setting [1] is < 1000 nM.

For `O=C(COc1ccc(Cl)c(F)c1)NC1CC2(C1)CN(C(=O)COC1CC(n3nccn3)C1)C2` (centres unmarked) [Example 18, 2-(4-chloro-3-fluoro-phenoxy)-N-[2-[2-[3-(triazol-2-yl)cyclobutoxy]acetyl]-2-azaspiro[3.3]heptan-6-yl]acetamide], the IC50 under setting [1] was < 1000 nM.

Regarding `O=C(COc1ccc(Cl)cc1)NC1CC2CN(c3cnn([C@H]4C[C@@H](OC(F)(F)F)C4)c3)CC2C1` (stereo partly drawn) [Example 61, 2-(4-chlorophenoxy)-N-(2-(1-(3-cis-(trifluoromethoxy)cyclobutyl)-1H-pyrazol-4-yl)octahydrocyclopenta[c]pyrrol-5-yl)acetamide], the IC50 is > 10000 nM.

Take `O=C(CO[C@H]1C[C@@H](OC(F)(F)F)C1)NC1CN(C(=O)COC2CC(OC(F)(F)F)C2)C1` (stereo partly drawn) [Example 25, 2-[3-cis (trifluoromethoxy)cyclobutoxy]-N-[1-[2-[3-cis-(trifluoromethoxy)cyclobutoxy]acetyl]azetidin-3-yl]acetamide]: under setting [1], the half-maximal inhibitory concentration (IC50) is 1000 to 10000 nM.

Regarding `O=C(COc1ccc(Cl)c(F)c1)NC1CC(OCCOC2CC(OC(F)(F)F)C2)C1` (single isomer, unassigned) [42 (isomer 1), 2-(4-chloro-3-fluoro-phenoxy)-N-[3-[2-[3-cis-(trifluoromethoxy)cyclobutoxy]ethoxy]-cis-cyclobutyl]acetamide], the half-inhibitory concentration (IC50) under setting [1] was < 1000 nM.

Turning to `N#CC1CC(OCC(=O)NC23CC(NC(=O)COc4ccc(Cl)c(F)c4)(C2)C3)C1` (centres unmarked) [Example 7, 2-(4-chloro-3-fluorophenoxy)-N-(3-(2-(3-cyanocyclobutoxy)acetamido)bicyclo[1.1.1]pentan-1-yl)acetamide], the IC50 under setting [1] was < 1000 nM.

As for `O=C(COc1ccc(Cl)c(F)c1)NC1CC2(C1)CN(C(=O)COC1CC(OC(F)(F)F)C1)C2` (stereo not drawn) [Example 21, 2-(4-chloro-3-fluoro-phenoxy)-N-[2-[2-[3-cis-(trifluoromethoxy)cyclobutoxy]acetyl]-2-azaspiro[3.3]heptan-6-yl]acetamide], the IC50 under setting [1] was < 1000 nM.

As a reminder, the IC50 is the concentration that inhibits the measured activity by half.
